Measurements published in patent US20250270173A1, “PYRIDINE DERIVATIVES FOR TREATING PSYCHIATRIC DISORDERS” (GILGAMESH PHARMACEUTICALS, INC., priority 2022, published 2025).
Where two headings read alike, the source gives them in different places.

Assays:
[1] = target: 5-HT2B receptor (Homo sapiens (Human), UniProt P41595); experiment: FLIPR Ca2+ flux functional assay at 5-HT2B (HEK293); conditions: for 5-HT2B % Act @ Max Conc.: HEK293, at max concentration
[2] = target: 5-HT1A receptor (Homo sapiens (Human), UniProt P08908); experiment: FLIPR Ca2+ flux functional assay at 5-HT1A (CHO cells); conditions: for 5-HT1A % Act @ Max Conc.: Ca2+ flux, CHO cells, at max concentration
[3] = system: C57BL/6 mice; experiment: Automated (video tracking) head twitch response (HTR) assay in mice; type: in vivo; conditions: SC; for ED50: 20 min recording; for Most Efficacious Dose; mg/kg: dose giving the most HTR
Experimental: Disclosed compounds were tested for their ability to induce a head twitch response (HTR) in mice using an automated video tracking procedure, with the results summarized in Table 5. […] The phenyl Compound 44 was substantially more efficacious at inducing HTR than its pyridine counterpart Compound 29, in agreement with the generally lower maximal efficacy of the disclosed pyridine compounds for signaling through 5-HT2A receptors.
(§1) Animals. Adult male C57BL/6 mice aged 8-10 weeks (body weight 20-25 g) were used in these experiments. Animals were housed under controlled temperatures and 12-hour light/dark cycles (lights on between 07:00-19:00 h), with ad libitum food and water. The protocol was approved by the Institutional Animal Care and Use Committee at the study site. This study was carried out in strict accordance with the recommendations in the Guide for the Care and Use of Laboratory Animals of the National Institutes of Health. All efforts were made to minimize suffering.
Drugs and Drug Administration. […] was commercially obtained. Disclosed compounds were synthesized as described above. They were administered subcutaneously (SC) dissolved in saline (or saline acidified with 1-2 molar equivalents HCl to form the salt in situ for freebase compounds) at a volume of 10 mL/kg. Five doses were tested, with N=5-8 animals/group. Doses were calculated on the basis of the freebase, except for DOI, which was calculated based on the HCl salt.
Procedure. Mice were administered one dose of the drug and immediately placed into a small open field for behavioral observation. High-speed video of animals' behavior was captured continuously for 20 min. Video recordings were imported into an image processing software, which detects multiple points of interest on each animal's body, including the left and right ear. HTR events were defined as periodic deviations of ear locations from temporally averaged ear locations. Predefined thresholds for magnitude and frequency of location deviations were used to filter […] events from random head movements. The method was validated by comparing detected events with manual (human) observations and found to have an accuracy >95%. The total number of HTR events counted during the 20-min recording were determined for each animal at each dose.
(§2) Statistical Analysis. Analysis was performed using GraphPad Prism 9. Dose-response curves were fit via non-linear regression using the Gaussian 2020 function in Prism in order to determine the ED50 and Emax for each compound.

[4] = target: T1, 5-HT2A receptor (Homo sapiens (Human), UniProt P28223); experiment: 5-HT2A receptor radioligand binding with [3H]ketanserin; conditions: read-out: Ki at 5-HT2A Receptor (nM) ([3H]ketanserin); HEK293 stable cell line, 1 nM [3H]ketanserin, 1 h, 25 °C
[5] = target: T1, 5-HT2A receptor; experiment: FLIPR Ca2+ flux functional assay at 5-HT2A (HEK293); conditions: for 5-HT2A % Act @ Max Conc.: Ca2+ flux, HEK293, at max concentration
[6] = target: human 5-HT2C receptor (Homo sapiens (Human), UniProt P28335); experiment: FLIPR Ca2+ flux functional assay at 5-HT2C (Eurofins DiscoverX); type: cell-based; conditions: Ca2+ flux, human 5-HT2C; for 5-HT2C % Act @ Max Conc.: at max concentration; for EC50: read-out: 5-HT2C EC50
Experimental: Functional Assays at 5-HT2C Receptors. […] Probenecid was prepared fresh. Cells were loaded with dye prior to testing and incubated at 37° C. for 30-60 minutes. After dye loading, cells were removed from the incubator and 10 μL HBSS/20 mM Hepes was added. 3× vehicle was included in the assay buffer. Cells were incubated for 30 mins at room temperature in the dark to equilibrate plate temperature. Intermediate dilution of sample stocks was performed to generate 4× sample in assay buffer. Compound agonist activity was measured on a FLIPR Tetra (MDS). Calcium mobilization was monitored for 2 minutes and 10 μL 4× sample in HBSS/20 mM Hepes was added to the cells 5 seconds into the assay.

[7] = system: C57BL/6 mice; experiment: Manual head twitch response (HTR) assay in mice; type: in vivo; conditions: SC
Experimental: Agonists of the 5-HT2A receptor are well known to induce this effect in rodents and the potency of this HTR is correlated with hallucinogenic potency in humans.
as §1
Drugs and Drug administration. DOI was commercially obtained. All other compounds were synthesized as described above. All drugs were administered subcutaneously (SC) dissolved in saline vehicle (or saline acidified with 1-2 molar equivalents HCl to form the salt in situ for freebase compounds) and at a volume of 10 mL/kg. Drugs were administered at 4 or 5 doses per compound, using n=6 animals/group. Doses were calculated on the basis of the freebase form, except for DOT, which was calculated based on the HCl salt.
Procedure. Mice were administered one dose of the drug (or vehicle) SC and immediately placed into a small open field for behavioral observation. Animals were observed continuously for 20 mins and the number of head twitches (HTs) were counted by an observer blind to the treatment condition.
as §2

[8] = Mus musculus, 20 min, read-out: ED50

human 5-HT2C receptor, sequence (P28335 whole entry, looked up): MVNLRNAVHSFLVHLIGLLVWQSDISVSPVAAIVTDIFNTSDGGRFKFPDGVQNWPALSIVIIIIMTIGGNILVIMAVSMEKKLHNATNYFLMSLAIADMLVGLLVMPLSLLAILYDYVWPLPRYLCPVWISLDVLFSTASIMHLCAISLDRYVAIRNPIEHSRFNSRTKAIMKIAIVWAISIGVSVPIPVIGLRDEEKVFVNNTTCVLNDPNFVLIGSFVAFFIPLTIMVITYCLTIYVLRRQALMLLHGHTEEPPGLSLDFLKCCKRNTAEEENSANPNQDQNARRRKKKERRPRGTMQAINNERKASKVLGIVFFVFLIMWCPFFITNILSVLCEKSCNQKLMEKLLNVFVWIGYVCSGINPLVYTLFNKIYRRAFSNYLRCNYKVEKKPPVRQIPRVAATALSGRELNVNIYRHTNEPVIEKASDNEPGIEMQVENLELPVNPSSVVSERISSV
5-HT2B receptor, sequence (P41595 whole entry, looked up): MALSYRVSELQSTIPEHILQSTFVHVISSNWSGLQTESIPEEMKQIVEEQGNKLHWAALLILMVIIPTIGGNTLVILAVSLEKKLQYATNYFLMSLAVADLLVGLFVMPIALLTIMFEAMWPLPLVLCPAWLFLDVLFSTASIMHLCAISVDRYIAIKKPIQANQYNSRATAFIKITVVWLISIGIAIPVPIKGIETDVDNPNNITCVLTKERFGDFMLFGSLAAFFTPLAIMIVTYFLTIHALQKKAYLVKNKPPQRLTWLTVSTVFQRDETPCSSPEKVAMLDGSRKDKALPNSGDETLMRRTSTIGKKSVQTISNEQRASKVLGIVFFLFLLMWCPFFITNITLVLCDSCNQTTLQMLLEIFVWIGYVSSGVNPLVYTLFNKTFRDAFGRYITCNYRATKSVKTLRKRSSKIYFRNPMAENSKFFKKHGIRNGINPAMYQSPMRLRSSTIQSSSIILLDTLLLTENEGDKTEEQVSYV

Compound	EC50 [1] [µM]	5-HT2B % Act @ Max Conc. ([1]; Ca2+ flux) [%]	EC50 [2] [µM]	5-HT1A % Act @ Max Conc. [2] [%]	ED50 [3, 8] [mg/kg]	Emax (HTR counts/20 min) [3] [HTR counts/20 min]	# HTR/20 min at Most Efficacious Dose [3] [HTR/20 min]	Most Efficacious Dose; mg/kg [3]	Ki [4] [nM]	EC50 [5] [µM]	5-HT2A % Act @ Max Conc. [5] [%]	5-HT2C % Act @ Max Conc. [6] [%]	EC50 [6] [µM]	EC50 ([1]; read-out: 5-HT2B EC50, Ca2+ flux, HEK293) [µM]	ED50 [3] [mg/kg]	Emax (HTR counts/20 min) [7] [HTR counts/20 min]	ED50 ([7]; 20 min observation) [mg/kg]
COc1cc(CCCCCC(F)(F)F)c(OC)nc1CCN [Compound 30, 2-(3,6-dimethoxy-5-(6,6,6-trifluorohexyl)pyridin-2-yl)ethan-1-amine]	1.67	23.14	91.6	55.61	5.87	16.80	17.5	(3.2) mg/kg	6.01	0.065	73.21	–	–	–	–	–	–
CCCCc1cc(OC)c(CCN)nc1OC [Compound 31, 2-(5-butyl-3,6-dimethoxypyridin-2-yl)ethan-1-amine]	> 10	7.29	> 100	21.32	1.29	43.42	43.38	(3.2) mg/kg	19.7	0.00788	90.63	–	–	–	–	–	–
COc1cc(CCCCF)c(OC)nc1CCN [Compound 32, 2-(5-(4-fluorobutyl)-3,6-dimethoxypyridin-2-yl)ethan-1-amine]	> 10	−0.69	> 100	0.5	–	–	–	–	103	0.0208	81.86	99.77	0.0228	–	–	–	–
CCCc1cc(OC)c(CCN)nc1OC [Compound 36, 2-(3,6-dimethoxy-5-propylpyridin-2-yl)ethan-1-amine]	0.184	21.53	> 100	3.03	0.972	48.79	48.12	(10) mg/kg	35.4	0.00414	88.19	–	–	–	–	–	–
CCCCCCc1cc(OC)c(CC(C)N)nc1OC (stereo not drawn) [Compound 38, 1-(5-hexyl-3,6-dimethoxypyridin-2-yl)propan-2-amine]	> 10	4.76	56.9	123.88	–	–	–	–	3.1	0.0114	83.97	79.49	0.159	–	–	–	–
COc1cc(CC(C)N)c(OC)cc1I (stereo not drawn) [DOI, reference compound]	–	86.3	–	−2.47	–	82.02	81.5	(3.2) mg/kg	–	–	106	92.6	0.000818	0.00488	0.531	35.7	0.428
